Source: US11040968B2, “Pyridine derivative as ASK1 inhibitor and preparation method and use thereof” (FUJIAN COSUNTER PHARMACEUTICAL CO., LTD., priority 2017, dated 2021)
Where two headings read alike, the source gives them in different places.

Tests used:
ASK1/MAP3K5 = ASK1/MAP3K5 (Homo sapiens (Human), UniProt Q99683); assay: Enzyme activity: ASK1 kinase 33P-ATP filter-binding assay with MBP substrate; assay type: biochemical
Method: Experimental Example 1: Enzyme Activity
Primary reaction buffer solution: 20 mM Hepes (pH 7.5), 10 mM MgCl2, 1 mM EGTA, 0.02% Brij35, 0.02 mg/ml BSA, 0.1 mM Na3VO4, 2 mM DTT, 1% DMSO
Treatment of the Compound:
The tested compounds were formulated into a 10 mM stock solution in DMSO, diluted in 3-fold gradient for a total of 10 concentrations, and placed in a 384-well plate (Cyclic Olefin Copolymer LDV Echo®).
Kinase Name: ASK1/MAP3K5 (Invitrogen, Carlsbad, Calif.)
Type: Recombinant Human Full Length Protein, GST-tagged
Final reaction concentration of the enzyme: 20 nM
Substrate: Myelin basic protein, MBP (Active Motif, Carlsbad, Calif.)
Final reaction concentration of the substrate: 20 μM
1. The substrate was dissolved in a freshly prepared primary reaction buffer solution,
2. The desired coenzyme factor was added to the above substrate solution,
3. The kinase was added to the substrate solution and mix gently,
4. The solution tested compound in DMSO was added to the kinase reaction solution and incubated at room temperature for 20 minutes.
5. The reaction was initiated by adding ^33P-ATP (specific activity 10 μCi/μL) to the reaction solution.
6. Incubated at room temperature for 2 hours.
7. A small portion of the reactants were placed onto the P-81 ion exchange filter paper.
8. The filter paper was washed three times with 0.75% phosphate buffer to wash away unbound phosphate, and then dried.
9. The radioactivity remaining on the filter paper was determined,
10. The data for the kinase activity was expressed as the ratio of the kinase activity remaining in the test sample to the kinase activity in the vehicle (DMSO).
11. IC50 values and curve fitting were collected by Prism (GraphPad software).

[1] = Pharmacokinetic characteristics study in mice (plasma, LC-MS/MS); assay type: in vivo; details: C57BL/6 male mice
Method: Experimental Example 2: Pharmacokinetic Characteristics Study
C57BL/6 male mice were used in this study. The drug concentration in the plasma of mice subjected to intravenous or oral administration of the test compound at different time points were quantitatively determine by LC/MS/MS method, respectively, in order to evaluate the pharmacokinetic characteristics of the tested drugs in mice.
A clear solution of the test compound was injected into C57BL/6 mice via the tail vein (overnight fasting, 7-10 weeks old), and the test compound was intragastrically administered to C57BL/6 mice (overnight fasting, 7-10 weeks old). 30 μL of the blood was collected from the jugular vein or the tail vein of the animals 0.0833, 0.25, 0.5, 1, 2, 4, 6, 8 and 24 hours after administration, and placed in the anticoagulant tube containing EDTA-K2, followed by centrifugation at 4° C. for 15 minutes to collect the plasma. The plasma concentration was determined by LC-MS/MS. The pharmacokinetic parameters were calculated by the non-compartment model linear logarithmic trapezoidal method using WinNonlin™ Version 6.3 (Pharsight, Mountain View, Calif.) pharmacokinetic software.

[2] = ASK1 enzyme activity, class symbols, read-out: IC50 value
[3] = recombinant human full length GST-tagged ASK1 20 nM, MBP 20 μM, 33P-ATP, 2 hours room temperature, read-out: IC50

ASK1/MAP3K5, sequence (Q99683 whole entry): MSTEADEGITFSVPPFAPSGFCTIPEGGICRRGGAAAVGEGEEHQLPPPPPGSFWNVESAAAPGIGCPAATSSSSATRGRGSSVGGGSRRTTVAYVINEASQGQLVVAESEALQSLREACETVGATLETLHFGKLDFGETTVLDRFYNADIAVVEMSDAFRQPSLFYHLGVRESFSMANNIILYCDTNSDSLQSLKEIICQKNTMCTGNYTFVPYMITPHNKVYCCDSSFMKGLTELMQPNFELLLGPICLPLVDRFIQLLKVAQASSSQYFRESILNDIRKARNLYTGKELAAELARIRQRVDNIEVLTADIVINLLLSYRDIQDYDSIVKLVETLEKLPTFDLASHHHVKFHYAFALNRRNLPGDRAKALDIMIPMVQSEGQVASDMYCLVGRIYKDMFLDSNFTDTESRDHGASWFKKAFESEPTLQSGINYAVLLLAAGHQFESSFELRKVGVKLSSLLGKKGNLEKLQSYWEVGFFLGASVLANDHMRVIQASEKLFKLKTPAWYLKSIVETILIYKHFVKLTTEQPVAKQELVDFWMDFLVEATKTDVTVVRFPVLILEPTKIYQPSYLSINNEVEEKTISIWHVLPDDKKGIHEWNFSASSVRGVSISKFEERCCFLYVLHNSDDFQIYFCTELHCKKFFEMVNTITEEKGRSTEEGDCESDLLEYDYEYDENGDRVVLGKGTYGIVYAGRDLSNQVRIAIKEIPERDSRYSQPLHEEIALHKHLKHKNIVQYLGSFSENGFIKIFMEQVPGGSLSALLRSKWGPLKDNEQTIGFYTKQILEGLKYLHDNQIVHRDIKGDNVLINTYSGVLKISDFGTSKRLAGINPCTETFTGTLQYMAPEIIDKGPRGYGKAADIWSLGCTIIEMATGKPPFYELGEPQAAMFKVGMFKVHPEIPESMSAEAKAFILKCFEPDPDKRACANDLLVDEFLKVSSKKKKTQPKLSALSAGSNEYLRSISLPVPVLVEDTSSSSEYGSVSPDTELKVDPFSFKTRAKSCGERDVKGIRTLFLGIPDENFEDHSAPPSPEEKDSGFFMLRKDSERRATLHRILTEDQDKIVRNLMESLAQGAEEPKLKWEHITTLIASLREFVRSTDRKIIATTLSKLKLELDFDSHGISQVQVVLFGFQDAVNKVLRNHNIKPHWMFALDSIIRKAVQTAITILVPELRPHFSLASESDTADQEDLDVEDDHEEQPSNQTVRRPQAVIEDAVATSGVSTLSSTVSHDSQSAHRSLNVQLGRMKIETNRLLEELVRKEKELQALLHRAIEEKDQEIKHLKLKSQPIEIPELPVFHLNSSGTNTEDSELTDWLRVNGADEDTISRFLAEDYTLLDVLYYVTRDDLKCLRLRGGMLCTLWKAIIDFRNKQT

Structure (SMILES)	IC50 (ASK1/MAP3K5; [2]) [nM]	IC50 (ASK1/MAP3K5; [3]) [nM]	Exposure ([1]; intravenous or oral (intragastric) administration) [µM·h]	bioavailability ([1]; mouse, intragastric vs intravenous administration) [%]
Cc1cc(F)c(C(=O)Nc2cccc(-c3nnc4n3CCC4)n2)cc1-n1cnc(C2CC2)c1 [WX001]	≤ 100	1.82		
Cc1cc(F)c(C(=O)Nc2cccc(-c3nnc4n3CCCC4)n2)cc1-n1cnc(C2CC2)c1 [WX002]	≤ 100	5.6	408.566	156
Cc1cc(F)c(C(=O)Nc2cccc(-c3nnc4n3CCCC4)n2)cc1-n1cc(C2CC2)nn1 [WX003]	> 100	943		
Cc1cc(F)c(C(=O)Nc2cccc(-c3nnc4n3CCCC4)n2)cc1-n1nnc(C2CC2)n1 [WX004]	> 100	> 1000		
Cc1cc(F)c(C(=O)Nc2cccc(-c3nnc4n3CCCC4)n2)cc1-n1cnc(C2CC2)n1 [WX005]	≤ 100	35.3		
O=C(Nc1cccc(-c2nnc3n2CCCC3)n1)c1cc(-n2cnc(C3CC3)c2)c(-c2cccnc2)cc1F [WX006]		19.2		
COCCOc1cc(F)c(C(=O)Nc2cccc(-c3nnc4n3CCCC4)n2)cc1-n1cnc(C2CC2)c1 [WX007]		16.6		
O=C(Nc1cccc(-c2nnc3n2CCCC3)n1)c1cc(-n2cnc(C3CC3)c2)c(O)cc1F [WX008]		5.44		
CC1(COc2cc(F)c(C(=O)Nc3cccc(-c4nnc5n4CCCC5)n3)cc2-n2cnc(C3CC3)c2)COC1 [WX010]		7.2		
O=C(Nc1cccc(-c2nnc3n2CCCC3)n1)c1cc(-n2cnc(C3CC3)c2)c(OCC2COC2)cc1F [WX011]		7.61		
O=C(Nc1cccc(-c2nnc3n2CCCC3)n1)c1cc(-n2cnc(C3CC3)c2)c(OCCF)cc1F [WX012]		7.04		
O=C(Nc1cccc(-c2nnc3n2CCCC3)n1)c1cc(-n2cnc(C3CC3)c2)c(OCCCF)cc1F [WX013]		7.93		
CN(C)c1cc(F)c(C(=O)Nc2cccc(-c3nnc4n3CCCC4)n2)cc1-n1cnc(C2CC2)c1 [WX014]		10.7		
O=C(Nc1cccc(-c2nnc3n2CCCC3)n1)c1cc(-n2cnc(C3CC3)c2)c(N2CCOCC2)cc1F [WX015]		10.1		
Cc1cc(F)c(C(=O)Nc2cccc(-c3nnc4n3CCCC4O)n2)cc1-n1cnc(C2CC2)c1 (stereo not shown) [WX016]		4.12		
